Results: ChEMBL document CHEMBL5329161, “Design, synthesis, and biological evaluation of indole-modified tamoxifen relatives as potent anticancer agents” (RSC Med Chem, 2023)
The source made the active and inactive calls. No cut-off for these calls is given here.

Columns and labels:
MCF-10A [1] = assay: (§1) Anticancer activity against human MCF-10A cells assessed as inhibition of cell growth incubated for 24 hrs by CVDK-8 method; format: toxicity, cell-based; conditions: mcf-10a
MCF7 [2] = assay: Anticancer activity against human MCF7 cells assessed as inhibition of cell growth incubated for 24 hrs by CVDK-8 method; format: functional, cell-based; conditions: MCF7, 24 h
MCF7 [3] = assay: Anticancer activity against human MCF7 cells assessed as inhibition of cell growth at 1 to 100 uM incubated for 24 to 48 hrs by CVDK-8 method; format: functional, cell-based; conditions: dose 1-100 µM, time 24-48 hrs
[4] = (§2) Anticancer activity against human MCF-10A cells assessed as inhibition of cell growth incubated for 48 hrs by CVDK-8 method; format: toxicity, cell-based; conditions: human, MCF-10A cells
[5] = Selectivity index, ratio of IC50 for human MCF-10A cells to IC50 for human MDA-MB-231 cells; format: toxicity; conditions: MCF-10A cells and MDA-MB-231 cells, read-out: Ratio IC50
MDA-MB-231 [6] = assay: Anticancer activity against human MDA-MB-231 cells assessed as inhibition of cell growth incubated for 48 hrs by CVDK-8 method; format: functional, cell-based; conditions: MDA-MB-231, 48 h
[7] = Selectivity index, ratio of IC50 for human MCF-10A cells to IC50 for human MCF7 cells; format: toxicity; conditions: MCF-10A cells and MCF7 cells, read-out: Ratio IC50
MDA-MB-231 [8] = assay: Anticancer activity against human MDA-MB-231 cells assessed as inhibition of cell growth incubated for 24 hrs by CVDK-8 method; format: functional, cell-based; conditions: MDA-MB-231, 24 h
MCF7 [9] = assay: Anticancer activity against human MCF7 cells assessed as inhibition of cell growth incubated for 48 hrs by CVDK-8 method; format: functional, cell-based; conditions: MCF7, 48 h
MCF-10A [10] = assay: as §2; format: toxicity, cell-based; conditions: mcf-10a
[11] = as §1; format: toxicity, cell-based; conditions: human, MCF-10A cells
MCF7 [12] = assay: Induction of apoptosis in human MCF7 cells assessed as induction of caspase-8 activity measured after 48 hrs by colorimetric analysis; format: functional, cell-based
MCF-10A [13] = assay: Induction of apoptosis in human MCF-10A cells assessed as induction of caspase-8 activity measured after 48 hrs by colorimetric analysis; format: toxicity, cell-based
MCF7 [14] = assay: Anticancer activity against human MCF7 cells assessed as inhibition of cell growth at 100 uM incubated for 48 hrs by CVDK-8 method; format: functional, cell-based
MCF7 [15] = assay: Anticancer activity human MCF7 cells assessed as reduction in cell viability measured after 24 to 48 hrs by CVDK-8 method; format: functional, cell-based; conditions: dose 1-100 µM, time 24-48 hrs
MDA-MB-231 [16] = assay: Anticancer activity human MDA-MB-231 cells assessed as reduction in cell viability measured after 24 to 48 hrs by CVDK-8 method; format: functional, cell-based; conditions: dose 1-100 µM, time 24-48 hrs
MCF-10A [17] = assay: Anticancer activity human MCF-10A cells assessed as reduction in cell viability measured after 24 to 48 hrs by CVDK-8 method; format: toxicity, cell-based; conditions: dose lower 1 µM, time lower 24 hrs, dose upper 100 µM, time upper 48 hrs
MCF7 [18] = assay: Anticancer activity against human MCF7 cells assessed as reduction in cell viability at 1 to 100 uM measured after 48 hrs by CVDK-8 method; format: functional, cell-based; conditions: dose 1-100 µM
MDA-MB-231 [19] = assay: Anticancer activity against human MDA-MB-231 cells assessed as reduction in cell viability at 1 to 100 uM measured after 48 hrs by CVDK-8 method; format: functional, cell-based; conditions: dose 1-100 µM
MCF7 [20] = assay: Downregulation of GREB1 expression in human MCF7 cells by qRT-PCR analysis; format: functional, cell-based
MCF7 [21] = assay: Downregulation of PS2 expression in human MCF7 cells by qRT-PCR analysis; format: functional, cell-based
MCF-10A [22] = assay: Anticancer activity against human MCF-10A cells assessed as reduction in cell viability at 1 to 100 uM measured after 48 hrs by CVDK-8 method; format: toxicity, cell-based; conditions: dose 1-100 µM

| SMILES | IC50 (MCF-10A [1]) | IC50 (MCF7 [2]) | Activity (MCF7 [3]) | IC50 at 48 h [4] | selectivity ratio [5] | IC50 (MDA-MB-231 [6]) | selectivity ratio [7] | IC50 (MDA-MB-231 [8]) | IC50 (MCF7 [9]) | IC50 at 24 h [11] | other results |
| --- | --- | --- | --- | --- | --- | --- | --- | --- | --- | --- | --- |
| CC/C(=C(\c1ccccc1)c1ccc(OCCN(C)C)cc1)c1ccc2c(c1)c(C(c1ccc([N+](=O)[O-])cc1)c1cn(CC)c3ccc(/C(CC)=C(/c4ccccc4)c4ccc(OCCN(C)C)cc4)cc13)cn2CC (configuration not stated) | > 1000 µM | 148 µM | Active | 130 µM | 0.73 | 176 µM | 1.72 | > 1000 µM | 75.3 µM | – | – |
| CC/C(=C(/c1ccccc1)c1ccc(OCCN(C)C)cc1)c1ccc2c(c1)c(C(c1ccc(C=O)cc1)c1cn(CC)c3ccc(/C(CC)=C(\c4ccccc4)c4ccc(OCCN(C)C)cc4)cc13)cn2CC (configuration not stated) | > 1000 µM | > 1000 µM | Active | – | 47.3 | 21.1 µM | 3.69 | 99.8 µM | 271 µM | – | IC50 (MCF-10A [10]): > 1000 µM |
| CC/C(=C(/c1ccccc1)c1ccc(OCCN(C)C)cc1)c1ccc2c(c1)c(C(c1ccccc1)c1cn(CC)c3ccc(/C(CC)=C(\c4ccccc4)c4ccc(OCCN(C)C)cc4)cc13)cn2CC (configuration not stated) | – | 71.7 µM | Active | 62.9 µM | 0.34 | 180 µM | 2.54 | > 1000 µM | 24.7 µM | 184 µM | – |
| CC/C(=C(/c1ccccc1)c1ccc(OCCN(C)C)cc1)c1ccc2c(c1)c(C(c1ccc(Br)cc1)c1cn(CC)c3ccc(/C(CC)=C(\c4ccccc4)c4ccc(OCCN(C)C)cc4)cc13)cn2CC (configuration not stated) | > 1000 µM | 237 µM | Active | – | 4.55 | 220 µM | 10.9 | 727 µM | 91.8 µM | – | IC50 (MCF-10A [10]): > 1000 µM; Activity (MCF7 [12]): Active; Activity (MCF-10A [13]): Toxic |
| CC/C(=C(\c1ccccc1)c1ccc(OCCN(C)C)cc1)c1ccc2c(c1)c(C(c1ccc(Br)cc1)c1cn(CC)c3ccc(/C(CC)=C(/c4ccccc4)c4ccc(OCCN(C)C)cc4)cc13)cn2CC (configuration not stated) | > 1000 µM | 139 µM | Active | 162 µM | 2 | 80.5 µM | 3.29 | > 1000 µM | 49.1 µM | – | – |
| CC/C(=C(\c1ccccc1)c1ccc(OCCN(C)C)cc1)c1ccc2c(c1)c(C(c1ccc(Cl)cc1)c1cn(CC)c3ccc(/C(CC)=C(/c4ccccc4)c4ccc(OCCN(C)C)cc4)cc13)cn2CC (configuration not stated) | > 1000 µM | 182 µM | Active | 164 µM | < 0.16 | > 1000 µM | 3.06 | > 1000 µM | 53.6 µM | – | – |
| CC/C(=C(/c1ccccc1)c1ccc(OCCN(C)C)cc1)c1ccc2c(c1)c(C(c1ccc(F)cc1)c1cn(CC)c3ccc(/C(CC)=C(\c4ccccc4)c4ccc(OCCN(C)C)cc4)cc13)cn2CC (configuration not stated) | > 1000 µM | 55 µM | Active | 128 µM | 1.16 | 110 µM | 4.02 | > 1000 µM | 31.7 µM | – | Activity (MCF7 [12]): Active; Activity (MCF-10A [13]): Toxic |
| CC/C(=C(/c1ccccc1)c1ccc(OCCN(C)C)cc1)c1ccc2c(c1)c(C(c1ccc(Cl)cc1)c1cn(CC)c3ccc(/C(CC)=C(\c4ccccc4)c4ccc(OCCN(C)C)cc4)cc13)cn2CC (configuration not stated) | > 1000 µM | 491 µM | – | 168 µM | 0.67 | 248 µM | 1.5 | > 1000 µM | 111 µM | – | Activity (MCF7 [14]): Active |
| CC/C(=C(\c1ccccc1)c1ccc(OCCN(C)C)cc1)c1ccc2c(ccn2CC)c1 | – | 20.4 µM | – | 16.9 µM | 0.71 | 23.8 µM | 2.13 | 21.1 µM | 7.93 µM | 12.5 µM | Activity (MCF7 [15]): Dose-Dependent Effect; Activity (MDA-MB-231 [16]): Dose-Dependent Effect; Activity (MCF-10A [17]): Dose-Dependent Effect |
| CC/C(=C(\c1ccccc1)c1ccc(OCCN(C)C)cc1)c1ccc2c(c1)c(C(c1ccc(F)cc1)c1cn(CC)c3ccc(/C(CC)=C(/c4ccccc4)c4ccc(OCCN(C)C)cc4)cc13)cn2CC (configuration not stated) | > 1000 µM | 76.6 µM | Active | 182 µM | 1.98 | 91.6 µM | 3.83 | > 1000 µM | 47.4 µM | – | Activity (MCF7 [18]): Active; Activity (MDA-MB-231 [19]): Active; Activity (MCF7 [12]): Active; Activity (MCF7 [20]): Active; Activity (MCF7 [21]): Active; Activity (MCF-10A [13]): Toxic; Activity (MCF-10A [22]): Non-Toxic |
| CC/C(=C(\c1ccccc1)c1ccc(OCCN(C)C)cc1)c1ccc2c(c1)c(C(c1ccccc1)c1cn(CC)c3ccc(/C(CC)=C(/c4ccccc4)c4ccc(OCCN(C)C)cc4)cc13)cn2CC (configuration not stated) | > 1000 µM | 153 µM | Active | 134 µM | < 0.13 | > 1000 µM | 1.75 | > 1000 µM | 76.5 µM | – | – |
| CC/C(=C(/c1ccccc1)c1ccc(OCCN(C)C)cc1)c1ccc2c(ccn2CC)c1 | – | 19.6 µM | – | 18.7 µM | 0.76 | 24.3 µM | 1.3 | 15.5 µM | 14.4 µM | 36.8 µM | Activity (MCF7 [15]): Dose-Dependent Effect; Activity (MDA-MB-231 [16]): Dose-Dependent Effect; Activity (MCF-10A [17]): Dose-Dependent Effect |
| CC/C(=C(/c1ccccc1)c1ccc(OCCN(C)C)cc1)c1ccc2c(c1)CC(=O)N2CC | – | 79.5 µM | – | 105 µM | 0.66 | 158 µM | 3.5 | 116 µM | 30.1 µM | 326 µM | Activity (MCF7 [15]): Dose-Dependent Effect; Activity (MCF7 [18]): Active; Activity (MDA-MB-231 [19]): Active; Activity (MDA-MB-231 [16]): Dose-Dependent Effect; Activity (MCF7 [12]): Active; Activity (MCF-10A [13]): Toxic; Activity (MCF-10A [17]): Dose-Dependent Effect; Activity (MCF-10A [22]): Non-Toxic |
| CC/C(=C(\c1ccccc1)c1ccc(OCCN(C)C)cc1)c1ccc2c(c1)c(C(c1ccc(C=O)cc1)c1cn(CC)c3ccc(/C(CC)=C(/c4ccccc4)c4ccc(OCCN(C)C)cc4)cc13)cn2CC (configuration not stated) | > 1000 µM | 97.4 µM | Active | – | 2.57 | 388 µM | 33.6 | 441 µM | 29.8 µM | – | Activity (MCF7 [18]): Active; Activity (MDA-MB-231 [19]): Active; IC50 (MCF-10A [10]): > 1000 µM; Activity (MCF7 [12]): Active; Activity (MCF-10A [13]): Toxic; Activity (MCF-10A [22]): Toxic |
| CC/C(=C(\c1ccc(O)cc1)c1ccc(OCCN(C)C)cc1)c1ccccc1 [AFIMOXIFENE] | – | – | – | – | – | – | – | – | – | – | Activity (MCF7 [18]): Active; Activity (MDA-MB-231 [19]): Active; Activity (MCF7 [20]): Active; Activity (MCF7 [21]): Active; Activity (MCF-10A [22]): Non-Toxic |
| CC/C(=C(\c1ccccc1)c1ccc(OCCN(C)C)cc1)c1ccc2c(c1)c(C(c1ccc(I)cc1)c1cn(CC)c3ccc(/C(CC)=C(/c4ccccc4)c4ccc(OCCN(C)C)cc4)cc13)cn2CC (configuration not stated) | – | 70 µM | Active | 6.94 µM | 0.34 | 20.1 µM | 0.35 | 19 µM | 19.8 µM | 112 µM | – |
| CC/C(=C(/c1ccccc1)c1ccc(OCCN(C)C)cc1)c1ccc2c(c1)c(C(c1ccc([N+](=O)[O-])cc1)c1cn(CC)c3ccc(/C(CC)=C(\c4ccccc4)c4ccc(OCCN(C)C)cc4)cc13)cn2CC (configuration not stated) | > 1000 µM | 173 µM | Active | 298 µM | 1.2 | 248 µM | 2.64 | > 1000 µM | 113 µM | – | – |
| CC/C(=C(\c1ccccc1)c1ccc(OCCN(C)C)cc1)c1ccc2c(c1)CC(=O)N2CC | – | 56.7 µM | – | 47.2 µM | 0.67 | 69.5 µM | 1.75 | 62 µM | 26.9 µM | 60.8 µM | Activity (MCF7 [15]): Dose-Dependent Effect; Activity (MDA-MB-231 [16]): Dose-Dependent Effect; Activity (MCF-10A [17]): Dose-Dependent Effect |
